Experimental findings from US5773569A (Affymax Technologies N.V., priority 1995, dated 1998) are described below.

Usually EC50 stands for the concentration giving half of the maximal effect.

Experiment [1] deals with T1, murine receptor (FDC-P1/ER cells) (Mus musculus, UniProt P14753).
T1 sequence (P14753 25-507): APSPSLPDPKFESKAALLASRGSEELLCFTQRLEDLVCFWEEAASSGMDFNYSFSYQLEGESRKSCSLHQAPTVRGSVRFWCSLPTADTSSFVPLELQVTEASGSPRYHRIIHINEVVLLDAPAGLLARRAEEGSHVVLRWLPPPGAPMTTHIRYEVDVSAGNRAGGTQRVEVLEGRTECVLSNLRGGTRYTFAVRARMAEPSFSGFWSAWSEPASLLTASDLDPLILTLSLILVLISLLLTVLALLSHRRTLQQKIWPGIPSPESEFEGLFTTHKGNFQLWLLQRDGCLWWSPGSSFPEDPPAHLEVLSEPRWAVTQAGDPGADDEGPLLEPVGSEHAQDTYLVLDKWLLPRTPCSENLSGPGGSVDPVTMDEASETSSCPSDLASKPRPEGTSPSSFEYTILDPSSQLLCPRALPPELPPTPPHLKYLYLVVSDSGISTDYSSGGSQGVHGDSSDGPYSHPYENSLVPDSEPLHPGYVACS
Briefly: cell-based. The note with it: IA = inactive.
Description: Sample Preparation: Peptides were resuspended in DMSO as a 1×10^-2 M stock solution and serially diluted in 10-fold increments to generate the following 100×solutions:
Two μl of each stock dilution was added to a cell well as described below in a total volume of 200 μl to generate final concentrations as follows:
(§1) Cells are harvested and resuspended in fresh medium without growth factor (erytiropoietin) for 24 hr. Cells are counted and resuspended at a concentration of 800,000 cells/ml. Approximately forty thousand cells (50μ) are added to each well of a 96 well microtiter plate. Peptide is added to each well in triplicate. A standard dose response determination is run with each series of peptides. After a forty-two hr incubation (≈2 doubling), each well is pulsed with 1 μCi/well Thymidine. Cells are incubated an additional six hr at which time cells are harvested and counted to assess thymidine incorporation as an indicator of cell proliferation.

Experiment [2] has as its target T2, truncated human erythropoietin receptor cell line (Homo sapiens, UniProt P19235).
T2 sequence (P19235 25-468 limits assumed): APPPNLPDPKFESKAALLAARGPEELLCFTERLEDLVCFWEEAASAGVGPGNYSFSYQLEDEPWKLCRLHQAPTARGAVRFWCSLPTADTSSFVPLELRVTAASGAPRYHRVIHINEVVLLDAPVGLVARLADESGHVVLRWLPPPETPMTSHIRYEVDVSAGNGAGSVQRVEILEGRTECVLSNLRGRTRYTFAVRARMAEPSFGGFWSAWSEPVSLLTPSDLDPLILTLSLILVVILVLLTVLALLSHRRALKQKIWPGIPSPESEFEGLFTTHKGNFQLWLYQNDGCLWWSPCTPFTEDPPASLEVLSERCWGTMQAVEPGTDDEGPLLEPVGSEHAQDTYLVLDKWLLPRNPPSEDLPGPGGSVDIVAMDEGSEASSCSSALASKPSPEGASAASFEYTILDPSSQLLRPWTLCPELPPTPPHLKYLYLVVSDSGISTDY
As to the kind of experiment: cell-based.
Description: as §1

[3] abbreviates: EPO-ED50 (μM), Tables 17-19, amount for half maximal level of EPO dependent proliferation.
Setting [4] is: EPO-ED50 (μM)* murine receptor, Tables 20-21.

Residues, ends and D or L forms follow the SMILES beside them.

`CC(C)C[C@@H]1NC(=O)[C@@H]2CCCN2C(=O)CNC(=O)[C@H](Cc2ccccc2)NC(=O)[C@H](Cc2c[nH]cn2)NC(=O)[C@@H](NC(=O)[C@H](CO)NC(=O)[C@H](Cc2ccc(O)cc2)NC(=O)[C@@H](N)[C@@H](C)O)CSSC[C@@H](C(=O)N[C@@H](CCCCN)C(=O)N2CCC[C@H]2C(=O)N[C@@H](CCC(N)=O)C(=O)NCC(=O)NCC(N)=O)NC(=O)[C@H](C(C)C)NC(=O)[C@H](Cc2c[nH]c3ccccc23)NC(=O)[C@H]([C@@H](C)O)NC1=O` [RWJ 61597] (HELM PEPTIDE1{T.Y.S.C.H.F.G.P.L.T.W.V.C.K.P.Q.G.G.[am]}$PEPTIDE1,PEPTIDE1,4:R3-13:R3$$$V2.0) yielded an EC50 in experiment [1] (setting [3]) of 2 µM. Same read-out and setting: to `CC(C)C[C@@H]1NC(=O)[C@@H]2CCCN2C(=O)CNC(=O)[C@H](Cc2ccccc2)NC(=O)[C@H](Cc2c[nH]cn2)NC(=O)[C@@H](NC(=O)[C@H](CO)NC(=O)[C@@H](N)Cc2ccc(O)cc2)CSSC[C@@H](C(=O)N[C@@H](CCCCN)C(N)=O)NC(=O)[C@H](C(C)C)NC(=O)[C@H](Cc2c[nH]c3ccccc23)NC(=O)[C@H]([C@@H](C)O)NC1=O` [RWJ 61279] (HELM PEPTIDE1{Y.S.C.H.F.G.P.L.T.W.V.C.K.[am]}$PEPTIDE1,PEPTIDE1,3:R3-12:R3$$$V2.0) belongs 3 µM.

Turning to `CC(C)C[C@@H]1NC(=O)[C@@H]2CCCN2C(=O)CNC(=O)[C@H](Cc2ccccc2)NC(=O)[C@H](Cc2c[nH]cn2)NC(=O)[C@@H](NC(=O)[C@H](CO)NC(=O)[C@H](Cc2ccc(O)cc2)NC(=O)[C@@H](NC(=O)CNC(=O)CN)[C@@H](C)O)CSSC[C@@H](C(=O)N[C@@H](CCCCN)C(=O)N2CCC[C@H]2C(=O)N[C@@H](CCC(N)=O)C(=O)NCC(=O)NCC(N)=O)NC(=O)[C@H](C(C)C)NC(=O)[C@H](Cc2ccccc2)NC(=O)[C@H]([C@@H](C)O)NC1=O` [RWJ 62145] (HELM PEPTIDE1{G.G.T.Y.S.C.H.F.G.P.L.T.F.V.C.K.P.Q.G.G.[am]}$PEPTIDE1,PEPTIDE1,6:R3-15:R3$$$V2.0), the concentration giving a half-maximal response (EC50) in experiment [1] (setting [3]) was determined as 0.25 µM; in experiment [2], 500 nM.

As to `CC(C)C[C@@H]1NC(=O)[C@H](C)NC(=O)CNC(=O)[C@H](Cc2ccccc2)NC(=O)[C@H](Cc2c[nH]cn2)NC(=O)[C@@H](NC(=O)[C@H](CO)NC(=O)[C@H](Cc2ccc(O)cc2)NC(=O)[C@@H](NC(=O)CNC(=O)CN)[C@@H](C)O)CSSC[C@@H](C(=O)N[C@@H](CCCCN)C(=O)N2CCC[C@H]2C(=O)N[C@@H](CCC(N)=O)C(=O)NCC(=O)NCC(N)=O)NC(=O)[C@H](C(C)C)NC(=O)[C@H](Cc2c[nH]c3ccccc23)NC(=O)[C@H]([C@@H](C)O)NC1=O` [RWJ 61277] (HELM PEPTIDE1{G.G.T.Y.S.C.H.F.G.A.L.T.W.V.C.K.P.Q.G.G.[am]}$PEPTIDE1,PEPTIDE1,6:R3-15:R3$$$V2.0), in experiment [1] (setting [3]), the midpoint of the response, the EC50, lay at 0.1 µM.

`CSCC[C@@H]1NC(=O)[C@H](CCCNC(=N)N)NC(=O)[C@@H](NC(=O)[C@H](CC(C)C)NC(=O)[C@H](Cc2ccc(O)cc2)NC(=O)[C@H](CCC(=O)O)NC(=O)CNC(=O)CN)CSSC[C@@H](C(=O)N[C@H](C(=O)N2CCC[C@H]2C(=O)N[C@H](C(=O)NCC(=O)NCC(N)=O)C(C)C)[C@@H](C)O)NC(=O)[C@H](C(C)C)NC(=O)[C@H](Cc2c[nH]c3ccccc23)NC(=O)[C@H]([C@@H](C)O)NC(=O)[C@H](CCSC)NC(=O)[C@@H]2CCCN2C(=O)CNC1=O` [RWJ 61719] (HELM PEPTIDE1{G.G.E.Y.L.C.R.M.G.P.M.T.W.V.C.T.P.V.G.G.[am]}$PEPTIDE1,PEPTIDE1,6:R3-15:R3$$$V2.0) came in with a half-maximal effective concentration (EC50) in experiment [1] (setting [3]) of 9 µM. Turning to `CC[C@H](C)[C@H](NC(=O)[C@H](Cc1ccc(O)cc1)NC(=O)[C@H](CCC(N)=O)NC(=O)[C@H](C)NC(=O)[C@@H](NC(=O)[C@@H](N)[C@@H](C)O)[C@@H](C)CC)C(=O)N[C@H]1CSSC[C@@H](C(=O)N[C@@H](CCCNC(=N)N)C(=O)N2CCC[C@H]2C(=O)N[C@@H](CO)C(=O)N2CCC[C@H]2C(=O)N[C@@H](CCCCN)C(=O)N[C@@H](C)C(N)=O)NC(=O)[C@H](CCC(=O)O)NC(=O)[C@H](Cc2c[nH]c3ccccc23)NC(=O)[C@H]([C@@H](C)O)NC(=O)[C@H](CCC(=O)O)NC(=O)[C@@H]2CCCN2C(=O)CNC(=O)[C@H](CCSC)NC(=O)[C@H](Cc2ccc(O)cc2)NC1=O` [AF11654] (HELM PEPTIDE1{T.I.A.Q.Y.I.C.Y.M.G.P.E.T.W.E.C.R.P.S.P.K.A.[am]}$PEPTIDE1,PEPTIDE1,7:R3-16:R3$$$V2.0), the half-maximal effective concentration (EC50) in experiment [1] (setting [4]) turned out to be 0.2 µM; in experiment [2] it was 20 nM. Turning to `CC(C)C[C@@H]1NC(=O)[C@@H]2CCCN2C(=O)CNC(=O)[C@H](Cc2ccccc2)NC(=O)[C@H](Cc2c[nH]cn2)NC(=O)[C@@H](NC(=O)[C@H](CO)NC(=O)[C@H](Cc2ccc(O)cc2)NC(=O)[C@H](CCCCN)NC(=O)[C@H](CCCNC(=N)N)NC(=O)CNC(=O)[C@@H](N)CC(C)C)CSSC[C@@H](C(=O)N[C@@H](CCC(N)=O)C(=O)N2CCC[C@H]2C(=O)N[C@@H](C)C(=O)N[C@@H](CCCCN)C(=O)N[C@@H](CCCCN)C(=O)N[C@@H](CC(=O)O)C(N)=O)NC(=O)[C@H](C(C)C)NC(=O)[C@H](Cc2c[nH]c3ccccc23)NC(=O)[C@H]([C@@H](C)O)NC1=O` [RWJ 61757] (HELM PEPTIDE1{L.G.R.K.Y.S.C.H.F.G.P.L.T.W.V.C.Q.P.A.K.K.D.[am]}$PEPTIDE1,PEPTIDE1,7:R3-16:R3$$$V2.0), the figures for the EC50 in experiment [1] (setting [4]) and in experiment [2] were 0.11 µM and 150 nM, respectively.

In turn, `CC(C)[C@@H]1NC(=O)[C@H](Cc2c[nH]c3ccccc23)NC(=O)[C@H]([C@@H](C)O)NC(=O)[C@H](C)NC(=O)[C@@H]2CCCN2C(=O)CNC(=O)[C@H](Cc2ccccc2)NC(=O)[C@H](Cc2c[nH]cn2)NC(=O)[C@@H](NC(=O)[C@H](CO)NC(=O)[C@H](Cc2ccc(O)cc2)NC(=O)[C@@H](NC(=O)CNC(=O)CN)[C@@H](C)O)CSSC[C@@H](C(=O)N[C@@H](CCCCN)C(=O)N2CCC[C@H]2C(=O)N[C@@H](CCC(N)=O)C(=O)NCC(=O)NCC(N)=O)NC1=O` [RWJ 61314] (HELM PEPTIDE1{G.G.T.Y.S.C.H.F.G.P.A.T.W.V.C.K.P.Q.G.G.[am]}$PEPTIDE1,PEPTIDE1,6:R3-15:R3$$$V2.0) came in with a concentration for a half-maximal effect (EC50) in experiment [1] (setting [3]) of 0.2 µM. On the same count and under the same terms, the figure for `CC(C)C[C@@H]1NC(=O)[C@@H]2CCCN2C(=O)CNC(=O)[C@H](Cc2ccccc2)NC(=O)[C@H](Cc2c[nH]cn2)NC(=O)[C@@H](NC(=O)[C@H](CO)NC(=O)[C@H](Cc2ccc(O)cc2)NC(=O)[C@@H](N)[C@@H](C)O)CSSC[C@@H](C(=O)N[C@@H](CCCCN)C(=O)N2CCC[C@H]2C(=O)N[C@@H](CCC(N)=O)C(N)=O)NC(=O)[C@H](C(C)C)NC(=O)[C@H](Cc2c[nH]c3ccccc23)NC(=O)[C@H]([C@@H](C)O)NC1=O` [RWJ 61230] (HELM PEPTIDE1{T.Y.S.C.H.F.G.P.L.T.W.V.C.K.P.Q.[am]}$PEPTIDE1,PEPTIDE1,4:R3-13:R3$$$V2.0) is 2 µM. Take `CSCC[C@@H]1NC(=O)[C@H](Cc2c[nH]cn2)NC(=O)[C@@H](NC(=O)[C@H](C)NC(=O)[C@H](Cc2ccc(O)cc2)NC(=O)[C@H](CC(C)C)NC(=O)CNC(=O)CN)CSSC[C@@H](C(=O)N[C@@H](CCC(N)=O)C(=O)N2CCC[C@H]2C(=O)N[C@@H](CC(C)C)C(=O)N[C@@H](CCCNC(=N)N)C(=O)NCC(N)=O)NC(=O)[C@H](C(C)C)NC(=O)[C@H](Cc2c[nH]c3ccccc23)NC(=O)[C@H]([C@@H](C)O)NC(=O)[C@H](CCSC)NC(=O)[C@@H]2CCCN2C(=O)CNC1=O` [RWJ 61718]: the half-maximal effective concentration (EC50) in experiment [1] (setting [4]) is 0.15 µM; in experiment [1] (setting [3]), 0.1 µM; in experiment [2], 80 nM. `CC(C)C[C@@H]1NC(=O)[C@@H]2CCCN2C(=O)CNC(=O)[C@H](Cc2ccccc2)NC(=O)[C@H](Cc2c[nH]cn2)NC(=O)[C@@H](NC(=O)[C@@H](N)Cc2ccc(O)cc2)CSSC[C@@H](C(N)=O)NC(=O)[C@H](C(C)C)NC(=O)[C@H](Cc2c[nH]c3ccccc23)NC(=O)[C@H]([C@@H](C)O)NC1=O` [RWJ 61513] (HELM PEPTIDE1{Y.C.H.F.G.P.L.T.W.V.C.[am]}$PEPTIDE1,PEPTIDE1,2:R3-11:R3$$$V2.0): the midpoint of the response in experiment [1] (setting [3]), the EC50, lay at 2 µM.

`CC(C)C[C@@H]1NC(=O)[C@@H]2CCCN2C(=O)CNC(=O)[C@H](Cc2ccccc2)NC(=O)[C@H](Cc2c[nH]cn2)NC(=O)[C@@H](NC(=O)[C@H](CO)NC(=O)[C@@H](N)Cc2ccc(O)cc2)CSSC[C@@H](C(=O)N[C@@H](CCCCN)C(=O)N2CCC[C@H]2C(N)=O)NC(=O)[C@H](C(C)C)NC(=O)[C@H](Cc2c[nH]c3ccccc23)NC(=O)[C@H]([C@@H](C)O)NC1=O` [RWJ 61232] (HELM PEPTIDE1{Y.S.C.H.F.G.P.L.T.W.V.C.K.P.[am]}$PEPTIDE1,PEPTIDE1,3:R3-12:R3$$$V2.0) returned an EC50 in experiment [1] (setting [3]) of 20 µM.
